Where two headings read alike, the source gives them in different places.
Experiments:
human NUDT16 (wild-type) [1] = molecular target: T1, human NUDT16 (wild-type) (Homo sapiens, UniProt Q96DE0); assay: Determination of kinetic parameters of NUDT16 wild-type (malachite green phosphate release assay); assay type: biochemical; design: 6-His tag followed by TEV protease site (N, cleaved yes); made in house; host or cells: E. coli Rosetta pLysS; conditions: for k cat/K m, This work / k cat, This work / K m, This work: Michaelis-Menten fit; for k cat, This work / K m, This work: substrate hydrolysis, 37°C; for K m, This work: buffer pH 7.5, 20 mM MgCl2; for Hydrolysis by NUDT16 (qualitative): malachite green assay, sub-μM K m not determinable
Description: To establish an assay to look for product inhibition and to understand the role of the different substituents present on the purine ring, we first wanted to assess the activity of our protein preparations and compare it to the results obtained by Iyama et al. on NUDT16 activity on different nucleotides. Contrary to the results presented in the structural biology part, we used wild-type NUDT16 (no A22V mutation) for these activity studies. Using a malachite green based activity assay for quantification of phosphate release, we determined the kinetic parameters of NUDT16 hydrolysis when incubated in the presence of ITP, XDP and ADP (S3A–S3C Fig), all of which have a suitable K m for assessment with this assay and for inhibition studies (low μM range). The results are summarized and compared in Table 1 with the literature values. […] Our K m values for XDP and ITP are in the same range as data reported in Iyama et al.. Discrepancies between the two studies can be explained by differences in the detection methods (HPLC or malachite green assay), the protein constructs (with or without His-tag) and the buffer conditions. […] However, the k cat for ADP was 15 times higher, leading to a catalytic efficiency in the same range as the one determined for XDP and ITP. Such a correlation between low affinity K m values and low apparent rate constant values is also noticeable when looking more broadly at available data for the purine based substrates.
(§1) Each sample point was obtained in the presence of 1 μM of NUDT16 (0.1 μM when assayed for activity against ITP) and various concentrations of substrates in buffer C (50 mM Tris-HCl pH 7.5, 150 mM NaCl, 20 mM MgCl2, 0.005% Tween-20, and 0.5 mM TCEP). When ITP was used as a substrate, 0.1 unit of yeast inorganic pyrophosphatase (Sigma-Aldrich) was added to the well. The activity assay was performed in 100 μl in a 96-well plate at 37°C and was stopped by addition of 25 μl of Malachite Green Working Solution (prepared as described in [42]). Plate was kept under shaking at room-temperature for 15 min, then 100 μl were transferred into a 384-well plate and the measurement of the absorbance at 630nm was carried out either on a CLARIOstar (BMG LABTECH) or a Victor^3 (PerkinElmer) reader.
(§2) The amount of free phosphate produced during the hydrolysis was estimated by comparison with a standard curve.
(§3) Experiments were performed in triplicate and data analysis was done on GraphPad Prism version 5.01 for Windows (GraphPad Software, San Diego California USA, www.graphpad.com).
(§4) For each assayed substrate, starting substrate concentrations (varying from 0.5 to 240 μM) and incubation times (from 20 to 240 min) were selected in order for the quasi-steady-state assumption to remain valid.

human NUDT16 (wild-type) [2] = molecular target: T1, human NUDT16 (wild-type); assay: Binding of products to NUDT16 by isothermal titration calorimetry
Experimental: NUDT16 was dialyzed against 20 mM Hepes pH 7.5, 300 mM NaCl, 20 mM MgCl2, 10% glycerol, and 0.5 mM TCEP in a Slide-a-Lyzer cassette (7kDa cut-off). […] The buffer compositions in the cell and the syringe were carefully matched such that the sole difference between them was either the protein or the nucleotide content.
Titrations were performed at 25°C using 32 injections of 1.2μl of nucleotide solutions (following a 1μl pre-injection) spaced by 120 sec into the 200 μl experimental cell on a iTC200 MicroCal instrument (GE Healthcare) at the Karolinska Institutet/SciLifeLab Protein Science Core Facility (http://psf.ki.se).
Binding isotherm and thermodynamic constants were determined through fitting experimental data against a one-site binding-model (number of sites, ΔH and K a being unconstrained during refinement) on Origin software v7.0552 (OriginLab).

NUDT16 = conditions: cited from earlier work; for K m, Ref. 14 / k cat, Ref. 14 / k cat/K m, Ref. 14: literature values, ref 14 (Iyama et al)
NUDT16 A22V = molecular target: T2, NUDT16 A22V (Homo sapiens, UniProt Q96DE0, A22V); assay: Determination of kinetic parameters of NUDT16 A22V (malachite green assay); assay type: biochemical; conditions: A22V mutant, Michaelis-Menten fit
T2 construct: 6-His tag followed by TEV protease site (N, cleaved yes); made in house; host or cells: E. coli Rosetta
Experimental: It is worth noting that the protein construct used to obtain the two NUDT16 crystal structures harbors an A22V mutation (see Material and Methods section). […] This was confirmed by comparing the kinetic parameters of NUDT16 wild-type with those obtained with the A22V mutation (S1 Table) when NUDT16 was assayed against XDP and ITP. […] Detailed schemes of all interactions between protein, nucleotide and metals are shown on Fig 3C–3E.
as §1, §2, §3, §4
The procedure was identical whether NUDT16 wild-type or A22V was used in the assay.

[3] = ITC, 25°C, one binding-site model

T1 sequence (Q96DE0 whole entry): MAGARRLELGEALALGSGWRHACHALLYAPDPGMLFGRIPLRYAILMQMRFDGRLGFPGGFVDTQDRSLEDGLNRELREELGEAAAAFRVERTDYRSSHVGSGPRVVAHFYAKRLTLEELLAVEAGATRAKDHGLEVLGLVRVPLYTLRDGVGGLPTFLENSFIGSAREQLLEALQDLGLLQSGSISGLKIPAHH
T2 sequence (Q96DE0 whole entry A22V): as the sequence (Q96DE0 whole entry) above, with A22V counted along it

k cat/K m, This work (human NUDT16 (wild-type) [1]; NUDT16 wild-type)	k cat, This work (human NUDT16 (wild-type) [1]; NUDT16 wild-type)	K m, This work (human NUDT16 (wild-type) [1]; NUDT16 wild-type)	Compound	K m, Ref. 14 (NUDT16)	k cat, Ref. 14 (NUDT16)	k cat/K m, Ref. 14 (NUDT16)	also measured
0.52 ± 0.10 10^3 s^-1M^-1	0.0959 ± 0.00897 s⁻¹	185 ± 32 µM	Nc1ncnc2c1ncn2[C@@H]1O[C@H](COP(=O)(O)OP(=O)(O)O)[C@@H](O)[C@H]1O [ADP]	–	–	–	K m for ADP relative to XDP (times higher) (human NUDT16 (wild-type) [1]; NUDT16 wild-type): about 30 times; k cat for ADP relative to XDP (times higher) (human NUDT16 (wild-type) [1]; NUDT16 wild-type): 15 times
–	–	–	Nc1ncnc2c1ncn2[C@@H]1O[C@H](COP(=O)(O)O)[C@@H](O)[C@H]1O [AMP]	–	–	–	Kd (human NUDT16 (wild-type) [2]; ITC, 25°C, one binding-site model, 20 mM MgCl2, pH 7.5): too low for establishing good binding constants
–	–	–	Nc1nc2c(ncn2[C@@H]2O[C@H](COP(=O)(O)OP(=O)(O)O)[C@@H](O)[C@H]2O)c(=O)[nH]1 [GDP]	0.33 µM	0.00863 s⁻¹	26.1 10^3 s^-1M^-1	Hydrolysis by NUDT16 (qualitative) (human NUDT16 (wild-type) [1]): process efficiently
–	–	–	Nc1nc(=O)c2ncn([C@@H]3O[C@H](COP(=O)(O)O)[C@@H](O)[C@H]3O)c2[nH]1 [GMP]	–	–	–	Kd (human NUDT16 (wild-type) [2]): 34.25 ± 0.05 µM; N sites (human NUDT16 (wild-type) [2]; [3]): 1.080 ± 0.015
–	–	–	O=P(O)(O)OP(=O)(O)OC[C@H]1O[C@@H](n2cnc3c(O)ncnc32)[C@H](O)[C@@H]1O [IDP, inosine diphosphate]	0.066 µM	0.0155 s⁻¹	251 10^3 s^-1M^-1	K m for IDP relative to ITP (times lower) (NUDT16; ref 14 (Iyama et al.)): 350 times; Hydrolysis by NUDT16 (qualitative) (human NUDT16 (wild-type) [1]): process efficiently
1.55 ± 0.20 10^3 s^-1M^-1	0.0127 ± 0.0005 s⁻¹	8.23 ± 1.01 µM	O=c1[nH]cnc2c1ncn2[C@@H]1O[C@H](COP(=O)(O)OP(=O)(O)OP(=O)(O)O)[C@@H](O)[C@H]1O [ITP]	22.1 µM	0.051 s⁻¹	2.31 10^3 s^-1M^-1	Km (NUDT16 A22V): 12.8 ± 1.46 µM; kcat, NUDT16 A22V (NUDT16 A22V): 0.00657 ± 0.000217 s⁻¹
0.99 ± 0.23 10^3 s^-1M^-1	0.00613 ± 0.0013 s⁻¹	6.22 ± 0.55 µM	O=c1[nH]c(=O)c2ncn([C@@H]3O[C@H](COP(=O)(O)OP(=O)(O)O)[C@@H](O)[C@H]3O)c2[nH]1 [XDP]	15.7 µM	0.0433 s⁻¹	2.76 10^3 s^-1M^-1	Km (NUDT16 A22V): 9.7 ± 1.25 µM; kcat, NUDT16 A22V (NUDT16 A22V): 0.00515 ± 0.0002 s⁻¹
–	–	–	O=c1[nH]c(=O)c2ncn([C@@H]3O[C@H](COP(=O)(O)O)[C@@H](O)[C@H]3O)c2[nH]1 [XMP]	–	–	–	Kd (human NUDT16 (wild-type) [2]): 39.06 ± 0.07 µM; N sites (human NUDT16 (wild-type) [2]; [3]): 0.821 ± 0.024

— article PMC4485890 (PLoS ONE, 2015)
